Measurements from paper PMC11187542, “Identification of fragments targeting SMYD3 using highly sensitive kinetic and multiplexed biosensor-based screening” (RSC Medicinal Chemistry, 2024).

Legend:
SMYD3 (apo, native) = molecular target: T1, SMYD3 (apo, native) (Homo sapiens, UniProt Q9H7B4); assay: GCI biosensor kinetic screening, apo SMYD3 surface; assay type: binding; conditions: for LE (ligand efficiency): LE = −RT ln(KD)/n; for Kd / kd / kon at 250 µM: initial kinetic screening, fragment 250 μM, 15 °C; for kd / kon at 250 µM: 1:1 model; for kon at 250 µM: read-out: ka
T1 construct: Full length recombinant SMYD3 was produced as previously reported; made in house; host or cells: E. coli BL21(DE3), in some cases Rosetta 2
T1 sequence (Q9H7B4 1-428): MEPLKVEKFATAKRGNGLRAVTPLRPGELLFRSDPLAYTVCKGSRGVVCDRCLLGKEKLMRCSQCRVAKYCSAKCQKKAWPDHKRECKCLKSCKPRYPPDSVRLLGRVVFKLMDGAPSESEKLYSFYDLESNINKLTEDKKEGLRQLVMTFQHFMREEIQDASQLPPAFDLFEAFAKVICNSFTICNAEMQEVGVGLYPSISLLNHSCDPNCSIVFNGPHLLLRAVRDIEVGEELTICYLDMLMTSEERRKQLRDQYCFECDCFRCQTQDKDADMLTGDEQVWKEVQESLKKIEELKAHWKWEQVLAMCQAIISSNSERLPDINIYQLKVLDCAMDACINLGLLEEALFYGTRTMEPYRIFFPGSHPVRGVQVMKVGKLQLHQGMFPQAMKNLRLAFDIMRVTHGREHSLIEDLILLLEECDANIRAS
Source text: (§1) A multiplexed screening assay was set up with three different SMYD3 surfaces and a blank reference surface in flow channels 1–4 (FC1–FC4) (Fig. 2a), as described previously.[5] The apo SMYD3 surface detected fragments interacting anywhere on SMYD3, while a SMYD3 surface blocked by active site-specific tight-binding inhibitor EPZ031686 detected compounds binding elsewhere. The denatured surface served as a reference, detecting fragments binding to unfolded proteins, also potentially present to a significant degree in the other two surfaces.
After preparing the sensor surface and immobilising SMYD3, the functionality of the surface was assessed via analysis of interactions with the co-factor product S-adenosyl-homocysteine (SAH). It was used as a control in all experiments, confirming that sensor surfaces were intact. This was done using the novel multiple injection-based experimental design (Fig. 1) at 25 μM, i.e. in a weak binder mode (Fig. 2b).
(§2) The library was screened using the approach described in Fig. 1, i.e. injection of fragments at 250 μM for increasing durations of time in a single cycle, using a flow rate of 100 μL min^−1, data acquisition set to 40 Hz and with an association time of 5 s and dissociation of 20 s. Each fragment was addressed to all four channels and interactions with the native and blocked surfaces compared. The experimental conditions were chosen to ensure that the assay could reliably characterize the fast and transient interactions expected from typical fragments.
(§3) The kinetic screening of 1056 compounds was successfully completed in 72 hours. […] Hits were identified with full kinetic information using dissociation phases.
(§4) All interaction kinetic experiments were conducted with a GCI–flow-based biosensor (WAVEdelta, Creoptix AG/Malvern Panalytical) and PCH WAVEchip (Creoptix AG/Malvern Panalytical) sensor chips. The sensor chips were conditioned using injections of borate buffer (10 mM sodium tetraborate pH 8.5, 1 M NaCl). The running buffer composition, if not otherwise stated, was TBS buffer (50 mM Tris, 150 mM NaCl, 0.5 mM TCEP, 0.05% Tween 20, 1% DMSO, pH 8). SMYD3 was diluted to the desired concentration in 10 mM bis-Tris (pH 7.0) and amine coupled to the sensor surface of the PCH sensor chip. The sensor chip was functionalized at 25 °C by immobilising SMYD3 with EDC and NHS (Xantec) using an injection time of 420 s and a flow rate of 10 μL min^−1. The immobilisation levels ranged from 5000 pg mm^−2 to 18 500 pg mm^−2 surface mass to enable analysis of fragments spanning a broad range of affinities. After immobilization, the surface was deactivated with a running buffer containing 50 mM Tris for 420 s. The GCI data referencing and analysis were performed using WAVEcontrol V4.5 (Creoptix AG).
(§5) Kinetic measurements with controls and fragments were performed at 15 °C. Analysis of controls and follow up of hits was done using the multi cycle kinetic (MCK) injection of a concentration series for the same time, with a two-fold serial dilution starting at 250 μM for each compound. Solvent correction was performed ranging from 0.5–1.8% DMSO. Blank samples of the running buffer, 1× TBS (50 mM Tris, 150 mM NaCl, 0.5 mM TCEP, 0.05% Tween 20, 1% DMSO, pH 8), were injected during the measurements every fifth cycle. The experimental design illustrated in Fig. 1 was used for the screening against all four surfaces. The sensorgrams were adjusted to account for solvent correction and blank subtraction. Kinetic fitting was performed with the Direct Kinetics engine of WAVEcontrol software V4.5 (Creoptix AG) with a suitable fitting model.

SMYD3 [1] = molecular target: T2, SMYD3 (Homo sapiens, UniProt Q9H7B4); assay: GCI biosensor multi cycle kinetic confirmation of hits; assay type: binding; conditions: two-fold serial dilution starting at 250 μM, 15 °C, global fit 1:1 model
T2 construct: Full length recombinant SMYD3 was produced as previously reported; made in house; host or cells: E. coli BL21(DE3), in some cases Rosetta 2
T2 sequence (Q9H7B4 1-428): T1 sequence (Q9H7B4 1-428)
Experimental: Selected screening hits were also re-tested by conventional multi cycle kinetic analysis in order to confirm the interactions (some compounds were no longer available). Two variants of the GCI biosensor assay were set up, using different immobilisation levels, to allow the confirmation of hits over a broad range of affinities. […] The kinetics varied for the selected hits (ESI, ^† Fig. S2). All hits were not confirmed (ESI, ^† Fig. S1b).
as §4, §5
FL06268 Superstoichiometric and
Figure 1. Examples of sensorgrams from multicycle kinetic experiments with initial fragment hits and SMYD3. A)
Fragments for which crystal structures of the complex with SMYD3 were obtained. A global fit of the sensorgrams
crystal structures were not obtained. […]

SMYD3 [2] = molecular target: T2, SMYD3; assay: X-ray crystallography of SMYD3-fragment complexes (co-crystallization and soaking); parameters: key to XRC: success or failure of crystallization in complex with SMYD3: The success (+) or failure (−) of crystallization in complex with SMYD3; The success (+) or failure (−) of crystallization in complex with SMYD3; conditions: 5 mM fragment co-crystallization or soaking
Source text: To identify binding sites and binding modes, the fragment hits (Table 1) were used in both co-crystallization and soaking experiments to obtain SMYD3-fragment co-crystals for X-ray crystallographic analyses. Diffraction data of 1.6–1.9 Å maximum resolution were obtained for four fragments (Fig. 5). For data collection and refinement statistics, see ESI, ^† Table S1.
Four new sites were thus identified.
Polder (F0–Fc) maps (Fig. 5, right) were generated to establish whether the observed electron density features were more likely to represent background noise or to belong to bound fragments. These omit maps are generated upon exclusion of the ligand and surrounding solvent from the model, which aids in visualizing weak densities. […] For fragments FL01507, FL08580 and FL08619, a comparison of the maps obtained after refinement with a bound fragment with maps obtained upon their replacement with either glycerol or acetate, which were present in the crystallization or cryo-protectant solutions, respectively, was required.
8 mg mL^−1 of SMYD3 in storage buffer (TBS buffer containing 2 mM DTT) was pre-incubated for 4–8 hours with 5 mM of a respective fragment hit compound and 10% (v/v) DMSO. Subsequently, 1 μL of this solution was mixed with an equal volume of reservoir solution (100 mM Tris, 100 mM magnesium acetate, 15–17% PEG3350, pH 8.25–8.75) to create the drops for co-crystallization by hanging drop vapour diffusion performed at 20 °C. Needle-like co-crystals nucleated within 12 h of equilibration against the reservoir. In addition, crystals of SMYD3 obtained in ligand-free crystallization setups were soaked with fragment solution prior to freezing. All crystals were cryo-protected via brief immersion in reservoir solution supplemented with 10% (v/v) glycerol.
Diffraction data were collected at beamline ID23-1 of the European Synchrotron Radiation Facility (ESRF, Grenoble, France). Data were indexed, auto-processed, scaled and merged on-site using the implemented data processing routines and software. Fragment-associated electron density features were identified upon data analysis with the Pipedream system (version 1.4.0, Global Phasing Ltd, Cambridge, United Kingdom), which includes data processing with autoPROC,[14] molecular replacement with Phaser,[15] structure refinement with BUSTER version 2.10.4 (Global Phasing Ltd, Cambridge, United Kingdom), automated ligand fitting with Rhofit (Global Phasing Ltd, Cambridge, United Kingdom) and BUSTER post-refinement.[16] Refinement was done with Phenix,[17] and model building with Coot.[18] (F0–Fc) difference density maps for models, from which ligand atoms and surrounding water molecules were removed, were generated using Phenix.

[3] = molecular target: T3, SMYD3 in complex with active site-specific tight-binding inhibitor EPZ031686 (Homo sapiens, UniProt Q9H7B4); assay: GCI biosensor kinetic screening, active site blocked SMYD3 surface; conditions: for LE (ligand efficiency): LE = −RT ln(KD)/n, blocked SMYD3 surface; for Kd / kd / kon at 250 µM: initial kinetic screening, fragment 250 μM, 15 °C; for Kd: SMYD3 blocked by EPZ031686; for kd / kon at 250 µM: SMYD3 blocked by EPZ031686, 1:1 model; for kon at 250 µM: read-out: ka
T3 construct: Full length recombinant SMYD3 was produced as previously reported; made in house; host or cells: E. coli BL21(DE3), in some cases Rosetta 2
T3 sequence (Q9H7B4 1-428): T1 sequence (Q9H7B4 1-428)
Source text: as §1, §2, §3, §4, §5

SMILES | LE (ligand efficiency) (SMYD3 (apo, native)) | Kd (SMYD3 (apo, native)) | kd (SMYD3 (apo, native)) | kon at 250 µM (SMYD3 (apo, native)) | Outcome of multicycle kinetic experiment (sensorgram assessment) (SMYD3 [1]) | XRC: success or failure of crystallization in complex with SMYD3 (SMYD3 [2]) | LE (ligand efficiency) [3] | Kd [3] | kd [3] | kon at 250 µM [3]
N#Cc1cccc(O)c1 [FL01507] | 0.72 (kcal^-1 mol^-1)/HA | 17.9 µM | 1.3 s⁻¹ | 72000 M⁻¹ s⁻¹ | Complex interaction | (+) |  |  |  | 
O=c1cc(C(F)(F)F)c2cc(Cl)c(O)cc2o1 [FL01677] | 0.35 (kcal^-1 mol^-1)/HA | 44.4 µM | 0.96 s⁻¹ | 21600 M⁻¹ s⁻¹ | No binding | (−) |  |  |  | 
N#Cc1cc(Br)ccc1O [FL01750] | 0.61 (kcal^-1 mol^-1)/HA | 31.6 µM | 0.93 s⁻¹ | 29500 M⁻¹ s⁻¹ | No binding | (−) |  |  |  | 
CC(C)c1nsc(N)n1 [FL01791] |  |  |  |  |  | (+) | 0.67 (kcal^-1 mol^-1)/HA | 37 µM | 1.46 s⁻¹ | 39100 M⁻¹ s⁻¹
COc1ccc(-n2ncc(C(=O)O)c2C)cc1 [FL01833] |  |  |  |  |  | (−) | 0.31 (kcal^-1 mol^-1)/HA | 149 µM | 1.46 s⁻¹ | 9780 M⁻¹ s⁻¹
Nc1nc2cccnc2cc1Br [FL01891] | 0.52 (kcal^-1 mol^-1)/HA | 27.4 µM | 0.70 s⁻¹ | 25900 M⁻¹ s⁻¹ |  | (−) |  |  |  | 
O=C(O)c1ccnc2ccccc12 [FL02261] | 0.50 (kcal^-1 mol^-1)/HA | 17.4 µM | 1.09 s⁻¹ | 62700 M⁻¹ s⁻¹ |  | (−) |  |  |  | 
COc1ccccc1C1OC(=O)CC1C(=O)O (stereo not shown) [FL03512] | 0.35 (kcal^-1 mol^-1)/HA | 38 µM | 1.61 s⁻¹ | 42200 M⁻¹ s⁻¹ |  | (−) |  |  |  | 
Nc1ccc(S(N)(=O)=O)cc1 [FL04272] | 0.66 (kcal^-1 mol^-1)/HA | 4.4 µM | 0.68 s⁻¹ | 150000 M⁻¹ s⁻¹ |  | (−) |  |  |  | 
NC(=O)c1cccc(O)c1 [FL08580] | 0.70 (kcal^-1 mol^-1)/HA | 7.84 µM | 0.93 s⁻¹ | 118000 M⁻¹ s⁻¹ |  | (−) |  |  |  | 
CC(C)(C)OC(=O)NC1CCC(CC(=O)O)CC1 (stereo not shown) [FL08758] |  |  |  |  |  | (−) | 0.32 (kcal^-1 mol^-1)/HA | 60 µM | 2.01 s⁻¹ | 33300 M⁻¹ s⁻¹
Nc1ccnc(-c2cccnc2)n1 [FL08779] |  |  |  |  |  | (−) | 0.48 (kcal^-1 mol^-1)/HA | 25 µM | 1.07 s⁻¹ | 41900 M⁻¹ s⁻¹

Other lines, results leading:

LE (ligand efficiency) (SMYD3 (apo, native)) | Kd (SMYD3 (apo, native)) | kd (SMYD3 (apo, native)) | kon at 250 µM (SMYD3 (apo, native)) | Outcome of multicycle kinetic experiment (sensorgram assessment) (SMYD3 [1]) | XRC: success or failure of crystallization in complex with SMYD3 (SMYD3 [2]) | LE (ligand efficiency) [3] | Kd [3] | kd [3] | kon at 250 µM [3] | SMILES
 |  |  |  |  | (−) | 0.53 (kcal^-1 mol^-1)/HA | 56 µM | 1.09 s⁻¹ | 19400 M⁻¹ s⁻¹ | Oc1ccc2ccncc2c1 [FL01657]
 |  |  |  |  | (−) | 0.48 (kcal^-1 mol^-1)/HA | 56 µM | 1.37 s⁻¹ | 24400 M⁻¹ s⁻¹ | O=C(O)c1cc(Br)c(O)c(Br)c1 [FL01775]
 |  |  |  |  | (−) | 0.53 (kcal^-1 mol^-1)/HA | 124 µM | 1.61 s⁻¹ | 13000 M⁻¹ s⁻¹ | COc1ccc(Br)cc1N [FL01938]
 |  |  |  |  | (−) | 0.51 (kcal^-1 mol^-1)/HA | 5.6 µM | 0.42 s⁻¹ | 75200 M⁻¹ s⁻¹ | O=S(=O)(c1ccccc1)C1CCNC1 (stereo not shown) [FL08644]
0.49 (kcal^-1 mol^-1)/HA | 51.3 µM | 2.04 s⁻¹ | 39700 M⁻¹ s⁻¹ |  | (−) |  |  |  |  | Nc1nnc(-c2cccnc2)s1 [FL08795]
